Tests used:
Format in all cases: cell-based, human
HeLa cell line [1] = test: Extracellular vesicle morphology, EGFP-HSP90 transfected cells, confocal microscope; settings: HeLa transfected with pEGFP-HSP90; solution of Example 1; 20 μM; after 10 minutes
Procedure: In order to transfect the HSP90 protein, an exosome indicator, into the HeLa cell line, the HeLa cell line was cultured overnight in a 6-well plate, and then treated with a plasmid into which Effectene and pEGFP-HSP90 were cloned, and after 4 hours, the culture was replaced.
The next day, the culture was removed from the HeLa cell line, and the solution of Example 1 was added. A control group was not treated with any peptide, and an experiment group was treated with the eMTDΔ4 peptide of SEQ ID NO: 2 (final concentration: 20 μM). The HSP90 protein was excited using an argon laser of 488 nm. After 10 minutes, the control group and the experiment group were observed using a confocal microscope (Leica TCS SP5 Microsystems), and the results are shown in FIG. 4.

293-HEK cell line [2] = test: Extracellular vesicle output quantified by Bradford solution
Procedure: The 293-HEK cell line was cultured in a 6-well plate at a rate of 2×10^5 cells/mL, and the next day, the cell line was treated with the solution of Example 1 and a peptide of any one of SEQ ID NOs: 1 to 21. […], the solution was removed, followed by centrifugation at an RCF of 12000, and the extracellular vesicles were quantified using the supernatant by Bradford solution.

293-HEK cell line [3] = test: Loading of plasmid DNA in extracellular vesicles, agarose gel electrophoresis; settings: peptide 25 μM, PUC19 3 μg/ml, EGFP-C1 6 μg/ml, solution of Example 1
Procedure: After the 293-HEK cell line was cultured to 90% confluency in a 6-well plate, the culture was removed, and the cell line was treated with the eMTDΔ4 peptide (final concentration: 25 μM) and plasmid DNA (PUC19 3 μg/ml, EGFP-C1 6 μg/ml), which have been dissolved in the solution of Example 1.
1.15 ml of the supernatant was collected and 0.35 ml of Qiagen buffer P3 was added, thereby making a total volume of 1.5 ml, of which 0.75 ml was then passed through the DNA miniprep column (Qiagen), and the passed solution was purified with phenol and precipitated with ethanol.
After 30 μl of DNA bound to the column and 30 μl of DNA precipitated with ethanol were dissolved in water, 10 μl of DNA bound to the column and 10 μl of DNA precipitated with ethanol were subjected to agarose gel electrophoresis, and then stained with EtBr.

HeLa cell line [4] = test: Production of extracellular vesicles, observed by optical microscope (bright field); settings: solution of Example 1 (250 mM sucrose), peptide final concentration 20 μM, after 10 minutes
Procedure: After the HeLa cell line was cultured in a 6-well plate, the culture was removed, and then the HeLa cell line was treated with the solution in Example 1.
The control group was not treated with any peptide, and the experiment group was treated with eMTDΔ4 peptide of SEQ ID NO: 2 (final concentration: 20 μM). After 10 minutes, the generation of extracellular vesicles was observed by an optical microscope (bright field), and the observation results are shown in FIG. 1.
Extracellular vesicle production was carried out by the experimental method of Experimental Example 2-1 using the R(8):MTD peptide of SEQ ID NO: 4 and the solutions of Example 1 and Comparative Examples 1 to 18, and the results are shown in FIGS. 2A to 2S.
Extracellular vesicle production was carried out by the experimental method of Example 2-1 using the R(8):MTD peptide of SEQ ID NO: 4 and the solutions of Examples 1 to 3 on Table 3, and the results are shown in FIGS. 3A to 3C.

293-HEK cell line [5] = test: Loading of recombinant TRAIL protein in extracellular vesicles, SDS-acrylamide gel; settings: Recombinant TRAIL + (2 μg/ml), Peptide + (25 μM), solution of Example 1
Procedure: After the 293-HEK cell line was cultured to 90% confluency in a 6-well plate, the culture was removed, and the cell line was treated with the eMTDΔ4 peptide (final concentration: 25 μM) and the recombinant TRAIL, which have been dissolved to concentrations of 25 μM and 2 μg/ml in the solution of Example 1, respectively. The supernatant was collected, and PEG (final concentration: 8%) was added, followed by centrifugation at an RCF of 12000 for 10 minutes, thereby settling extracellular vesicles, and the extracellular vesicles were loaded on the SDS-acrylamide gel to check the TRAIL protein.

HeLa cell line [6] = test: Loading of propidium iodide (PI) in extracellular vesicles, confocal microscope; settings: HeLa transfected with HSP90; peptide 25 μM; 5 μg/ml PI; solution of Example 1; after 10 minutes
Procedure: Propidium iodide (PI), which is a drug poorly passing through cell membranes, is a fluorescent substance capable of being used to stain cells. First, the HSP90 protein was transfected into the HeLa cell line to prepare a cell line.
(§1) The control group was treated with only PI without any peptide, and the experiment group was treated with the eMTDΔ4 peptide (final concentration: 25 μM) and 5 μg/ml PI, which have been in combination dissolved in the solution of Example 1, and then after 10 minutes, the groups were observed by a confocal microscope.

293-HEK cell line [7] = test: Extracellular vesicle size and quantity by Nanoparticle Tracking Analysis (NTA); settings: 50-fold diluted, solution of Example 1, peptide 20 μm, after 20 minutes
Procedure: After the 293-HEK cell line was cultured to 90% confluency (about 2×10^7 cells) in a 10-cm culture dish, the culture was removed, and the cells were treated with the eMTDΔ4 peptide (final concentration: 20 μm), which has been dissolved in 5 ml of the solution of Example 1. After 20 minutes, the solution was removed, followed by centrifugation at an RCF of 12000, and then the size and quantity of extracellular vesicles were measured using a Nanoparticle Tracking Analysis (NTA) system (Nanosight LM10, Malvern Instruments).

HeLa cell line [8] = test: Loading of doxorubicin in extracellular vesicles, confocal microscope; settings: HeLa expressing EGFP-HSP90; peptide 25 μM; doxorubicin 100 μM; solution of Example 1; after 10 minutes
Procedure: Doxorubicin, which is a drug passing through cell membranes well, is used to treat cancers, such as breast cancer, bladder cancer, Kaposi's sarcoma, lymphoma, or acute lymphoblastic leukemia. First, the HeLa cell line was cultured in a 12-well plate overnight, then transfected with a plasmid expressing EGFP-HSP90 using effectene, and then the culture was replaced after 4 hours. The next day, the culture was removed from the HeLa cell line to prepare a cell line.
as §1, with “doxorubicin” for “PI”, “doxorubicin (final concentration: 100 μM),” for “5 μg/ml PI,”, “been” for “been in combination”

HeLa cell line [9] = test: Extracellular vesicle production, mEmerald-CD9 / mCherry-CD81 transfected cells, confocal imaging every 2 seconds; settings: solution of Example 1, 20 μM
Procedure: The HeLa cell line was cultured in a 12-well plate overnight, and in order to identify the CD9 protein, an extracellular vesicle indicator, the HeLa cell line was treated with a plasmid into which Effectene and mEmerald-CD9 were cloned, and after 4 hours, the culture was replaced.
The next day, the culture was removed from the HeLa cell line, and the HeLa cell line was treated with the solution of Example 1. After each HeLa cell line was treated with the eMTDΔ4 peptide (final concentration: 20 μM), a laser having a wavelength of 488 nm was used to excite mEmerald-CD9.
In order to identify the CD81 protein, an extracellular vesicle indicator, the same procedure as in the method for observing the CD9 protein was performed except that the HeLa cells were treated with a plasmid into which mCherry-CD81 instead of mEmerald-CD9 was cloned and mCherry-CD81 was excited using a laser having a wavelength of 561 nm, and the results are shown in FIG. 5B.

Sequence: KLNFRQKLLNLISKLF (eMTDdelta4) [eMTDΔ4, Noxa protein-derived peptide, 16aa]
- cell morphology (HeLa cell line [1]): the cell morphology was damaged
- extracellular vesicles containing HSP90 protein (HeLa cell line [1]): extracellular vesicles containing the HSP90 protein were settled on the bottom of the plate
- Amount of proteins contained in extracellular vesicles (293-HEK cell line [2]; solution of Example 1, peptide 10 μM): 4.93 µg/µL
- Amount of proteins contained in extracellular vesicles (293-HEK cell line [2]; solution of Example 1, peptide 20 μM): 6.40 µg/µL
- Amount of proteins contained in extracellular vesicles (293-HEK cell line [2]; solution of Example 1, peptide 40 μM): 7.56 µg/µL
- loading of plasmid DNA in extracellular vesicles (293-HEK cell line [3]): can be loaded in the extracellular vesicles
- generation of extracellular vesicles (HeLa cell line [4]): small extracellular vesicle particles were formed and settled on the bottom of the plate
- Protein detected or not (TRAIL in extracellular vesicles) (293-HEK cell line [5]): ◯
- loading of propidium iodide (PI) in extracellular vesicles (HeLa cell line [6]): the generated extracellular vesicles contained PI as well as the HSP90 protein
- Quantity of extracellular vesicles (293-HEK cell line [7]): 7.44e+08 ± 6.51e+07 mL⁻¹
- loading of doxorubicin in extracellular vesicles (HeLa cell line [8]): the generated extracellular vesicles contained doxorubicin as well as the HSP90 protein
- time to release of extracellular vesicles to the extracellular matrix (HeLa cell line [9]): within a few seconds after generation
- release of CD9 and CD81 proteins (extracellular vesicle indicators) (HeLa cell line [9]; observed for 10 minutes): CD9 and CD81 proteins were released into the extracellular matrix

— patent publication US12280148B2, “Composition for promoting extracellular vesicle production containing peptide derived from noxa protein and method for producing extracellular vesicles by using same” (Exocalibre Therapeutics Co., Ltd., priority 2020, dated 2025)
